Results from patent US20130243794A1 (priority 2010, published 2013).
Entries after “also recorded” stand apart in the source; their conditions may differ.

Assays:
baboons = conditions: in vivo
Bacillus anthracis = system: Bacillus anthracis; set-up: species or system baboons (Papio c. cynocephalus); conditions: in vivo

Row | Substance | circulating bDNA after toxin administration (baboons) | blood cultures (bacterial colony counts) (Bacillus anthracis) | decreases in fibrinogen (and in platelets) (Bacillus anthracis) | liver and kidney function (ALT, AST, BUN, creatinine) (Bacillus anthracis) | peak bDNA load (16S bacterial DNA, plasma qPCR) (Bacillus anthracis) | peak plasma mtDNA (CytB) level during anthrax bacteremia (Bacillus anthracis) | plasma bDNA (16S-rDNA) level and fall off over time (Bacillus anthracis) | plasma mtDNA levels after resolution of bacteremia (Bacillus anthracis) | respiratory rate (RR) / tachypnea (Bacillus anthracis) | survival (Bacillus anthracis)
1 | Shiga toxin 1 [ST1] | insignificant levels |  |  |  |  |  |  |  |  | 
2 | activated protein C [aPC] |  | no effect; also recorded: no significant difference between groups | not mitigated | markedly spared | no significant effect | approximately 200 ng/mL | essentially identical fall off; also recorded: no effect; also recorded: does not affect | mtDNA levels began falling after 24 hours; also recorded: plasma mtDNA levels decayed; also recorded: reduction in mtDNA | RR remained normal; also recorded: prevents tachypnea; also recorded: RR was unchanged | the animals survived; also recorded: all these animals survived
